Laboratory results published in patent US11452718B2 (AVALYN PHARMA INC., priority 2012, dated 2022).
“Also recorded” adds a separate entry of the source. Where two headings read alike, the source gives them in different places.

How the values were obtained:
[1] = Stability assessment of pirfenidone formulations at 25° C./60RH and 40° C./75RH; format: physicochemical; conditions: for Pirfenidone (mg/mL) at Time = 1 month / Pirfenidone (mg/mL) at Time = 3 month / Pirfenidone (mg/mL) at Time = 6 month / Pirfenidone (mg/mL) at Time = 0: 40° C./75% RH; for Measured Pirfenidone / mOsmol/kg / pH: time zero
Method: The sample was agitated until completely dissolved. Once dissolved, samples were filtered via syringe through a 0.22 μm PVDF filter.
Samples were refrigerated to reduce evaporative loss of volatile co-solvents (ethanol) during filtration and dispensing. An approximate 5.0-mL aliquot of each formulation was transferred to class A glass 6 ml containers with suitable closures (20 mm stopper). At least 8 containers are being maintained in the upright orientation at 25° C./60RH, and another 8 containers maintained at 40° C./75RH.

[2] = Rubino et al., cited from earlier work
[3] = tested on: proliferation of fibroblasts; LPS-stimulated release of PDGF, TNF-alpha and TGF-beta1; collagen synthesis; conditions: depending on the assay conditions; cited from earlier work
[4] = cited from earlier work
[5] = tested on: CYP2C9, 2C19, 2D6, and 2E1; conditions: hepatic microsomes; cited from earlier work
[6] = Modeled human inhaled aerosol pirfenidone pharmacokinetics (FIG. 2, FIG. 5, Table 28)
Method: Aerosol deliver parameters for the FIGS. 2 and 5 models were based on high-efficiency, mesh-based nebulizer characterization (Table 12). […] Respirable delivered dose (RDD) calculated by the product of fine particle fraction (FPF, %<5 microns) and inhaled mass. […] This later dose was modeled to be delivered in 1 minute.

[7] = 5 mM phosphate buffer pH 6.5 plus 1% (v/v) EtOH, 2% (v/v) PG, target pirfenidone 1 mg/mL
[8] = 5 mM phosphate buffer pH 6.5 plus 1% (v/v) EtOH, 2% (v/v) PG, target pirfenidone 15 mg/mL
[9] = 5 mM phosphate buffer pH 6.5 plus 4% (v/v) EtOH, 8% (v/v) PG, target pirfenidone 23 mg/mL
[10] = 5 mM phosphate buffer pH 6.5 plus 6% (v/v) EtOH, 12% (v/v) PG, target pirfenidone 30 mg/mL
[11] = 5 mM phosphate buffer pH 6.5 plus 8% (v/v) EtOH, 16% (v/v) PG, target pirfenidone 1 mg/mL
[12] = 5 mM phosphate buffer pH 6.5 plus 8% (v/v) EtOH, 16% (v/v) PG, target pirfenidone 38 mg/mL

## Cc1ccc(=O)n(-c2ccccc2)c1 [pirfenidone, 5-methyl-1-phenyl-2-(1H)-pyridone]
[1]; [7]
  Pirfenidone (mg/mL) at Time = 1 month: 1.0 mg/mL
  Pirfenidone (mg/mL) at Time = 3 month: 1.0 mg/mL
  Pirfenidone (mg/mL) at Time = 6 month: 1.0 mg/mL
  Measured Pirfenidone: 1.0 mg/mL
  mOsmol/kg: 452 mOsmol/kg
  pH: 6.69
[1]; [8]
  Pirfenidone (mg/mL) at Time = 0: 16.1 mg/mL
  Pirfenidone (mg/mL) at Time = 1 month: 15.1 mg/mL
  Pirfenidone (mg/mL) at Time = 3 month: 14.8 mg/mL
  Pirfenidone (mg/mL) at Time = 6 month: 15.5 mg/mL
  Measured Pirfenidone: 16.1 mg/mL
  mOsmol/kg: 512 mOsmol/kg
  pH: 6.65
[1]; [9]
  Pirfenidone (mg/mL) at Time = 0: 24.1 mg/mL
  Pirfenidone (mg/mL) at Time = 1 month: 22.4 mg/mL
  Pirfenidone (mg/mL) at Time = 3 month: 22.1 mg/mL
  Pirfenidone (mg/mL) at Time = 6 month: 23.3 mg/mL
  Measured Pirfenidone: 24.1 mg/mL
  pH: 6.78
[1]; [10]
  Pirfenidone (mg/mL) at Time = 0: 30.3 mg/mL
  Pirfenidone (mg/mL) at Time = 1 month: 30.3 mg/mL
  Pirfenidone (mg/mL) at Time = 3 month: 30.0 mg/mL
  Pirfenidone (mg/mL) at Time = 6 month: 31.1 mg/mL
  Measured Pirfenidone: 30.3 mg/mL
  mOsmol/kg: 2863 mOsmol/kg
  pH: 6.90
[1]; [11]
  Pirfenidone (mg/mL) at Time = 0: 1.0 mg/mL
  Pirfenidone (mg/mL) at Time = 1 month: 1.0 mg/mL
  Pirfenidone (mg/mL) at Time = 3 month: 1.0 mg/mL
  Pirfenidone (mg/mL) at Time = 6 month: 1.0 mg/mL
  Measured Pirfenidone: 1.0 mg/mL
  mOsmol/kg: 3590 mOsmol/kg
  pH: 6.98
[1]; [12]
  Pirfenidone (mg/mL) at Time = 0: 38.9 mg/mL
  Pirfenidone (mg/mL) at Time = 1 month: 38.4 mg/mL
  Pirfenidone (mg/mL) at Time = 3 month: 38.0 mg/mL
  Pirfenidone (mg/mL) at Time = 6 month: 37.9 mg/mL
  Measured Pirfenidone: 38.9 mg/mL
  mOsmol/kg: 3750 mOsmol/kg
  pH: 7.04
[2]; lung tissue (derived solely from plasma T1/2), aerosol 47 mg RDD, 2009 fasted-state
  T1/2 beta: 2.5 h
[2]; lung tissue (derived solely from plasma T1/2), oral 801 mg, fasted-state, 2009
  T1/2 beta: 2.5 h
[2]; lung tissue (derived solely from plasma T1/2), oral 801 mg, fed-state, 2009
  T1/2 beta: 2.4 h
[2]; plasma, aerosol 47 mg RDD, 2009 fasted-state
  T1/2 beta: 2.5 h
[2]; plasma, oral 801 mg, fasted-state, 2009
  T1/2 beta: 2.5 h
[2]; plasma, oral 801 mg, fed-state, 2009
  T1/2 beta: 2.4 h
[3]
  lower end of concentrations at which in vitro activities were evident: about 30 microM; also recorded: about 5.5 mcg/mL
  upper end of concentrations at which in vitro activities were evident: about 10 mM; also recorded: about 1.85 mg/mL
[4]; 40 mg/kg intravenous dose
  Lung Cmax: 30 mcg/gram wet tissue
  plasma Cmax: about 55 mcg/mL
[4]; intravenous
  wet lung half-life, longer than the plasma half-life: about 45%
[5]
  contribution of each isoenzyme to metabolism: less than 13%
[6]; 2.5 mg RDD inhaled over 1 minute, human model
  lung tissue Cmax compared to the 801 mg oral pirfenidone dose: equivalent
[6]; 29 mg RDD, 3 minute tidal-inhaled nebulized dose
  possible achieved human lung tissue Cmax: 43.2 mcg/gram lung tissue
[6]; 120 mg RDD inhaled over 5 minutes, human model
  plasma AUC compared to the 801 mg oral pirfenidone dose: equivalent
